Test results: ChEMBL document CHEMBL1127116, “Synthesis and structure-activity relationships of a novel series of non-peptide AT2-selective angiotensin II receptor antagonists” (Bioorg Med Chem Lett, 1993)

Tests used:
[1] = target: T1, Type-2 angiotensin II receptor (Rattus norvegicus, UniProt P35351); test: Inhibition of Angiotensin II receptor, type 2 in rat midbrain using [125I]-Sar1,Ile8 angiotensin II binding assay
T1 sequence (P35351 whole entry): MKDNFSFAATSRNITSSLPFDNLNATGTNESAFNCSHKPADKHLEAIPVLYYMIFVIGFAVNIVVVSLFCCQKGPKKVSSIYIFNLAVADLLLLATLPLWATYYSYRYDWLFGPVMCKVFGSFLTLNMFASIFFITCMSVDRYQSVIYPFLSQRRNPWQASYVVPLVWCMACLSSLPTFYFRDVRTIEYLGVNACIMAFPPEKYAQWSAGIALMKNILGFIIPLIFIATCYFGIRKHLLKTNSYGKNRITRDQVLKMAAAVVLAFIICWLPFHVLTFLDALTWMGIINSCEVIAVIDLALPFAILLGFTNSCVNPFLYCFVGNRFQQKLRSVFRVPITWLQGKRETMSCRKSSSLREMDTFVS

[2] = target: T2, Type-1 angiotensin II receptor (Oryctolagus cuniculus, UniProt P34976); test: Inhibition of angiotensin Angiotensin II receptor, type 1 in rabbit aorta using [125I-Sar1,Ile8] angiotensin II binding assay; type: tissue-based
T2 sequence (P34976 whole entry): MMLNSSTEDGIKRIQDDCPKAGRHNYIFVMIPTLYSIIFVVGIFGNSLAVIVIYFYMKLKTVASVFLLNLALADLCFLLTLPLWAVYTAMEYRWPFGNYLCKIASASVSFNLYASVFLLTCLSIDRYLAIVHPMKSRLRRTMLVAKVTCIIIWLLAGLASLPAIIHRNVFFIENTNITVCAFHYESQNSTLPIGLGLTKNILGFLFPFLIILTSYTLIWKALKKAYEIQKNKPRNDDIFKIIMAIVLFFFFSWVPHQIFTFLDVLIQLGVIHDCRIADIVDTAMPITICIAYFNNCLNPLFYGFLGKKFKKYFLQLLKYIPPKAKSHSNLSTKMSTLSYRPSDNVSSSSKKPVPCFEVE

[3] = target: T2, Type-1 angiotensin II receptor; test: Inhibition of Angiotensin II receptor, type 1 in rabbit aorta using [125I-Sar1,Ile8] angiotensin II binding assay; type: tissue-based
[4] = Oral bioavailability in rat; type: ADME, organism-based; conditions: in vivo
[5] = Half life in rats; type: ADME, organism-based; conditions: rat, in vivo
[6] = target: T1, Type-2 angiotensin II receptor; test: Compound was evaluated for inhibition of Angiotensin II receptor, type 2 in rat midbrain AT2 assay; type: tissue-based

IC50 [1] [nM]	IC50 [2] [nM]	IC50 [3] [nM]	Structure (SMILES)	further results
37	> 100000	–	O=C(N1CCN(C(=O)N(c2ccccc2)c2ccccc2)CC1)N(c1ccccc1)c1ccccc1	–
1.1	–	> 100000	CCCCCN(CCCCC)C(=O)N1CCN(C(=O)C(c2ccccc2)c2ccccc2)C(C(=O)O)C1 (stereo unspecified)	–
70	12500	–	CCCCCN(CCCCC)C(=O)N1CCN(C(=O)N(c2ccccc2)c2ccccc2)CC1	–
15	> 100000	–	CC1CN(C(=O)N(c2ccccc2)c2ccccc2)CCN1C(=O)N(c1ccccc1)c1ccccc1 (stereo unspecified)	–
0.7	10000	–	CCCCCN(CCCCC)C(=O)N1CCN(C(=O)N(c2ccccc2)c2cccc(C)c2)[C@H](C(=O)O)C1	–
180	1400	–	CCCCCN(CCCCC)C(=O)N1CCN(C(=O)N(c2ccccc2)c2ccc(C(=O)O)cc2)[C@H](C(=O)O)C1	–
82	–	> 30000	CCCCCN(CCCCC)C(=O)N1CCN(C(=O)N(CCCCC)CCCCC)[C@H](C(=O)O)C1	–
170	–	> 10000	CN(C(=O)N1CCN(C(=O)N(c2ccccc2)c2ccccc2)[C@H](C(=O)O)C1)c1ccccc1	–
15	> 10000	–	CCCCCN(CCCCC)C(=O)N1CCN(C(=O)N(c2ccccc2)c2ccccc2)[C@H](CCO)C1	–

The next lines start with the compound.

Structure (SMILES)	IC50 [1] [nM]	IC50 [2] [nM]	IC50 [3] [nM]	further results
CCCCCN(CCCCC)C(=O)N1CCN(C(=O)N(c2ccccc2)c2cccc(OC)c2)[C@H](C(=O)O)C1	7.8	> 10000	–	–
CC(C)N(C(=O)N1CCN(C(=O)N(c2ccccc2)c2ccccc2)[C@H](C(=O)O)C1)C(C)C	40	–	> 10000	–
CCCCCN(CCCCC)C(=O)N1CCN(C(=O)N(c2ccccc2)c2ccccc2)[C@@H](C(=O)O)C1	4.5	–	> 10000	–
CCCCCN(CCCCC)C(=O)N1CCN(C(=O)N(c2ccccc2)c2ccc(C(=O)OCC)cc2)[C@H](C(=O)O)C1	35	> 10000	–	–
O=C(O)[C@@H]1CN(C(=O)N(c2ccccc2)c2ccccc2)CCN1C(=O)N(c1ccccc1)c1ccccc1	–	–	> 100000	bioavailability [4]: 21%; half-life [5]: > 6 h
CCCCCN(C)C(=O)N1CCN(C(=O)N(c2ccccc2)c2ccccc2)[C@H](C(=O)O)C1	15	–	> 30000	–
CCCCCN(CCCCC)C(=O)N1CCN(C(=O)N(c2ccccc2)c2ccccc2)[C@H](C(=O)OC)C1	12	–	21000	–
CCCCCN(CCCCC)C(=O)N1CCN(C(=O)N(c2ccccc2)c2ccccc2)C[C@H]1C(=O)O	23	–	25000	–
CCCCCN(CCCCC)C(=O)N1CCN(C(=O)N(c2ccccc2)c2ccc(I)cc2)[C@H](C(=O)O)C1	7	8500	–	–
CCCCCN(CCCCC)C(=O)N1CCN(C(=O)N(c2ccccc2)c2ccc(O)cc2)[C@H](C(=O)O)C1	230	10000	–	–
CCCCCN(CCCCC)C(=O)N1CCN(C(=O)N(c2ccccc2)c2cccc(Cl)c2)[C@H](C(=O)O)C1	0.4	5100	–	–
CCCCCN(CCCCC)C(=O)N1CCN(C(=O)N(c2ccccc2)c2ccccc2)[C@H](C(=O)O)C1	1.4	39000	–	–
CCCCCN(CCCCC)C(=O)N1CCN(C(=O)N(c2ccccc2)c2ccc(Br)cc2)[C@H](C(=O)O)C1	2.7	5400	–	–
CCCCCN(CCCCC)C(=O)N1CCN(C(=O)N(c2ccccc2)c2ccccc2)C(C(=O)O)C1 (stereo unspecified)	1.7	–	> 30000	–
CC1CN(C(=O)N(c2ccccc2)c2ccccc2)C(C)CN1C(=O)N(c1ccccc1)c1ccccc1 (stereo unspecified)	10	> 100000	–	–
COc1ccc(Cn2cnc3c2C[C@@H](C(=O)O)N(C(=O)C(c2ccccc2)c2ccccc2)C3)cc1C	–	–	–	IC50 [6]: 38 nM
CCCCCN(CCCCC)C(=O)N1CCN(C(=O)N(c2ccccc2)c2ccccc2)[C@H](CO)C1	30	–	> 10000	–
CCCCCN(CCCCC)C(=O)N1CCN(C(=O)N(c2ccccc2)c2cccc(Br)c2)[C@H](C(=O)O)C1	0.6	59000	–	–
CCCCCN(C(=O)N1CCN(C(=O)N(c2ccccc2)c2ccccc2)C[C@H]1C(=O)O)c1ccccc1	20	–	45000	–
